Experimental data reported in publication PMC7956517, “Induction of Apoptosis and Regulation of MicroRNA Expression by (2E,6E)-2,6-bis-(4-hydroxy-3-methoxybenzylidene)-cyclohexanone (BHMC) Treatment on MCF-7 Breast Cancer Cells” (Molecules, 2021).

Columns and labels:
[1] = test system: MCF-10A cells; experiment: MTT cell viability assay, MCF-10A; type: cell-based; conditions: Homo sapiens
Description: (§1) The MTT cell viability assay for MCF-7, MDA-MB-231 and MCF 10A cells were conducted according to a previously reported protocol. MCF-7, MDA-MB-231, and MCF-10A were seeded in a 96-well plate at a concentration of 0.8 × 10^5 cells/mL and left overnight in a CO2 incubator set at 37 °C. Then, BHMC with 2-fold dilution ranging between 180 and 3 µM was added to the respective cell lines while the last row of the 96-well plate served as untreated control cells. After 24, 48, and 72 h of incubation, 20 µL of 5 mg/mL MTT solution was added to all wells and the plate was further incubated for three hours. Then, 180 µL of supernatant was carefully discarded and added with 100 µL of DMSO to solubilize the purple crystals. Optical density was measured at 570 nm wavelength using ELISA Reader (Bio-tek Instrument, Winooski, Vermont, USA). The percentage of cell viability was calculated following deduction of the blank cell absorbance using the formula (Equation (1)):(1) Cell viability % =Absorbance of treated cells/Absorbance of untreated control× 100%
(§2) The dose–response curve was plotted, and the concentration that yields 50% inhibition of cell growth (IC50) was obtained as a parameter for cytotoxicity. Starting from this point, BHMC with IC50 value was used throughout the study to induce cell death. On the other hand, selectivity index (SI) was obtained by using the following formula (Equation (2)):(2) Selectivity index SI =IC50 of MCF−10A/IC50 of MCF−7 or MDA−MB−231

[2] = test system: MDA-MB-231 cells; experiment: MTT cell viability assay, MDA-MB-231; type: cell-based, human; conditions: for IC50: Homo sapiens, MDA-MB-231, MTT
Description: as §1, §2

[3] = test system: MCF-7 cells; experiment: MTT cell viability assay, MCF-7; type: cell-based, human; conditions: for IC50: Homo sapiens, MCF7, MCF-7, MTT
Description: as §1, §2

[4] = test system: MCF-7 cells; experiment: Flow cytometry cell cycle analysis; type: cell-based, human; conditions: MCF-7, BHMC at IC50 (8.2 µM in figure; 12.50 µM in methods)
Description: (§3) MCF-7 cells were seeded at 0.8 × 10^5 cells/mL in a 6-well plate and left overnight in a CO2 incubator set at 37 °C. […] Untreated control was prepared simultaneously. After 24, 48, or 72 h of incubation, the cell was harvested using TrypLE (Gibco Thermo Fisher Scientific, Waltham, MA, USA), washed with phosphate buffer saline (PBS), and subjected to the following assays. All assays were tested with three biological replicates.
Cell cycle progression of control and BHMC-treated MCF-7 cells was evaluated by staining with BD Cycletest Plus kit (Becton Dickinson, Franklin Lakes, NJ, USA) and subjected to BD FACS Calibur flow cytometer (Becton Dickinson, USA) analysis. In brief, harvested cells were incubated with 250 µL of trypsin buffer for 10 min followed by addition of 200 µL of trypsin inhibitor containing RNase buffer. After 10 min of incubation, the samples were finally stained with 200 µL of PI solution. Flow cytometer analysis was carried out after 10 min of incubation with the PI stain solution. A minimum of 10,000 cells in the population was captured. Three independent experiments were repeated with similar parameter.

[5] = test system: MCF-7 cells; experiment: Real-time quantitative PCR of miRNAs expression; type: cell-based, human; conditions: qPCR, BHMC-treated vs untreated MCF-7
Description: (§4) Total RNAs including small RNAs were isolated from MCF-7 treated with BHMC using miRNeasy kit (Qiagen, Hilden, Germany) according to manufacturer’s instructions. The quality of extracted RNA was assessed by the NanoDrop-1000 Spectrophotometer (NanoDrop Technologies Inc., Wilmington, DE, USA) and Agilent 2100 Bioanalyzer, and samples with A260/A280 ratio between 1.8 to 2.1 and an RIN value of 8 and above was used for further analysis.
One microgram (μg) of total RNA was used in reverse transcription and the process was conducted using the miScript II RT Kit (Qiagen/SABiosciences, Hilden, Germany) according to the manufacturer protocol. Quantitative RT-PCR was carried out using CFX96 (BioRad, Hercules, CA, USA). […] The miRNA-specific primers for miR-3195, miR-30a, miR-6813-5p, and miR-6132 were designed by miRprimer and commercially synthesized as listed in Table 3. The expression of putative miRNAs was evaluated using geNorm algorithms. PCR reactions were performed in triplicate for each sample. The relative amounts of miRNAs were normalized against reference miRNAs and the fold change for each miRNA was calculated by the 2^−ΔΔCt method.

[6] = test system: MCF-7 cells; experiment: miRNA microarray analysis; type: cell-based, human
Description: as §4
Total RNA (8 µL) of control and BHMC-treated MCF-7 cells was directly labelled using Flash Tag Biotin HSR Labeling kits (Affymetrix, Santa Clara, CA, USA) in accordance with the instructions of the manufacturer. RNA was heated to 80 °C for 10 min before labeling to inactivate any residual DNase activity. RNA was hybridized for 42 h to the GeneChip miRNA 2.0 array (Affymetrix, Santa Clara, CA, USA). The GeneChip miRNA 2.0 arrays contain 100% miRBase version 15 coverage of 131 organisms and contain probes for 3439 humans non-coding RNAs (ncRNAs), including 1105 miRNAs and 2334 other ncRNAs (including scaRNAs and snoRNAs). Washing and staining were automatically performed using the Affymetrix Fluidics Station 450 (Affymetrix, Santa Clara, CA, USA), and probe intensities were measured using the GeneChip® Scanner (Affymetrix, Santa Clara, CA, USA).
Data discussed in this publication have been deposited in the NCBI Gene Expression Omnibus and are accessible through the GEO Series accession number GSE155467. Using the gene expression workflow in Partek Genomics Suite software (Cat 4462922G, Partek Inc., St. Louis, MO, USA), the CEL files generated by the Affymetrix data file were converted into .nFMT files. […] Differentially expressed miRNAs (>5-fold change, p < 0.05) were identified using analysis of variance (ANOVA) analysis.

[7] = test system: MCF-7 cells; experiment: Real-time quantitative PCR of mRNA expression (SNAIL, VEGF); type: cell-based, human; conditions: qPCR, BHMC-treated vs untreated MCF-7
Description: as §4
Real-time quantitative PCR was performed on SNAIL and VEGF, which were the target of miR-30a and miR-3195 [31]. One microgram (μg) of total RNA was reverse transcripted using the QuantiTect Reverse Transcription Kit (Qiagen, USA) according to the manufacturer protocol. Primers were designed using Primer-Blast (Table 2) and synthesized commercially. NEXpro qPCR Evagreen Master Mix (NEX Diagnostics, Gyeonggi-do, Korea) was used to perform the mRNA qPCR based on the manufacturer protocol. The qPCR system CFX96 (BioRad, USA) was used and the qPCR conditions were: 50 °C for 2 min, 95 °C for 10 min, and 40 cycles of 95 °C for 15 s, and 60 °C for 1 min. A final melting curve was performed to ensure that only one amplicon was present. The relative amounts of mRNAs were normalized against reference gene beta-actin (ACTB) as described previously and the fold change for each mRNA was calculated by the 2^−ΔΔCt method.

[8] = test system: MCF-7 cells; experiment: Light and fluorescent (AO/PI) microscopic observation; type: cell-based, human; conditions: MCF-7, 8.2 µM of BHMC, 48 h
Description: as §3
Morphology of control and BHMC-treated MCF-7 cells was observed under light microscope (Nikon, Minato City, Japan). For fluorescent microscope observation, control and BHMC-treated MCF-7 cells (2 × 10^5 cells) were stained with 10 μL of 100 μg/mL acridine orange (AO) and 100 μg/mL propidium iodide (PI) for 10 min. After that, the cells were washed and examined under fluorescent microscope (Nikon FC-35DX, Minato City, Japan) using an excitation filter and barrier filter at 450–490 nm and long pass filter of 520 nm.

[9] = test system: MCF-7 cells; experiment: Flow cytometry Annexin V apoptosis detection; type: cell-based, human; conditions: MCF-7, Annexin V/7ADD
Description: as §3
Cell apoptosis assay was conducted based on a study method with some changes. […] In brief, harvested cells were washed and re-suspended in 100 µL of PBS. […] Approximately, 10,000 cells in the population were captured. The experiment was qualitatively repeated for three times.

[10] = IC50 of MCF-10A / IC50 of MDA-MB-231, 24 h
[11] = IC50 of MCF-10A / IC50 of MDA-MB-231, 48 h
[12] = IC50 of MCF-10A / IC50 of MDA-MB-231, 72 h
[13] = IC50 of MCF-10A / IC50 of MCF-7, 24 h
[14] = IC50 of MCF-10A / IC50 of MCF-7, 48 h
[15] = IC50 of MCF-10A / IC50 of MCF-7, 72 h

COc1cc(/C=C/C(=O)CC(=O)/C=C/c2ccc(O)c(OC)c2)ccc1O [Curcumin, reference compound]
IC50 ([1]; 24 h): 188 ± 4.52 µM | IC50 ([1]; 48 h): 112 ± 4.57 µM | IC50 ([1]; 72 h): 100 ± 4.31 µM | IC50 ([2]; 24 h): 32 ± 2.81 µM | IC50 ([2]; 48 h): 26 ± 2.33 µM | IC50 ([2]; 72 h): 23 ± 2.15 µM | SI MCF10A/MDA-MB-231 [2, 10]: 5.88 | SI MCF10A/MDA-MB-231 [2, 11]: 4.31 | SI MCF10A/MDA-MB-231 [2, 12]: 4.35 | IC50 ([3]; 24 h): 55.7 ± 2.77 µM | IC50 ([3]; 48 h): 45.1 ± 2.12 µM | IC50 ([3]; 72 h): 39.8 ± 1.51 µM | SI MCF10A/MCF7 [3, 13]: 3.37 | SI MCF10A/MCF7 [3, 14]: 2.48 | SI MCF10A/MCF7 [3, 15]: 2.51

COc1cc(/C=C2\CCC/C(=C\c3ccc(O)c(OC)c3)C2=O)ccc1O [BHMC, (2E,6E)-2,6-bis-(4-hydroxy-3-methoxybenzylidene)-cyclohexanone]
percentage of cells at G2/M phase ([4]; 24 h): 24.26% | percentage of cells at Sub G0/G1 phase ([4]; 24 h): 6.64% | percentage of cells at Sub G0/G1 phase ([4]; 72 h): 22.80% | miR-30a-3p expression increment [5]: at least 5 fold | miR-3195 expression increment [5]: at least 5 fold | miR-6132 downregulation [5]: at least 10 folds | miR-6813-5p downregulation [5]: at least 10 folds | IC50 ([1]; 24 h): 180 ± 3.11 µM | IC50 ([1]; 48 h): 108 ± 2.15 µM | IC50 ([1]; 72 h): 98.4 ± 3.22 µM | IC50 ([2]; 24 h): 29.4 ± 3.15 µM | IC50 ([2]; 48 h): 20.1 ± 1.94 µM | IC50 ([2]; 72 h): 19.7 ± 3.14 µM | SI MCF10A/MDA-MB-231 [2, 10]: 6.14 | SI MCF10A/MDA-MB-231 [2, 11]: 5.38 | SI MCF10A/MDA-MB-231 [2, 12]: 5.00 | selectivity index (SI) MDA-MB-231 against MCF-10A ([2]; summary over 24, 48 and 72 h): > 5 | downregulation of miR-6813-5p, miR-6132, miR-4725-3p, miR-1587, miR-6779-5p ([6]; BHMC-treated MCF-7): at least 30 folds | upregulation of top five overexpressed miRNAs (miR-184, miR-3195, miR-149-5p, miR-30a-3p, miR532-3p) ([6]; BHMC-treated MCF-7): at least 10 folds | hsa-miR-30a-3p Upregulated Fold Change ([6]; BHMC-treated vs control MCF-7): 12.9 | hsa-miR-149-5p Upregulated Fold Change ([6]; BHMC-treated vs control MCF-7): 13.06 | hsa-miR-184 Upregulated Fold Change ([6]; BHMC-treated vs control MCF-7): 17.58 | hsa-miR-532-3p Upregulated Fold Change ([6]; BHMC-treated vs control MCF-7): 11.73 | hsa-miR-1587 Downregulated Fold Change ([6]; BHMC-treated vs control MCF-7): −35.89 | hsa-miR-3195 Upregulated Fold Change ([6]; BHMC-treated vs control MCF-7): 16.21 | hsa-miR-4725-3p Downregulated Fold Change ([6]; BHMC-treated vs control MCF-7): −41.51 | hsa-miR-6132 Downregulated Fold Change ([6]; BHMC-treated vs control MCF-7): −61.96 | hsa-miR-6779-5p Downregulated Fold Change ([6]; BHMC-treated vs control MCF-7): −33.07 | hsa-miR-6813-5p Downregulated Fold Change ([6]; BHMC-treated vs control MCF-7): −71.82 | SNAIL mRNA expression [7]: downregulated | VEGF mRNA expression [7]: downregulated | morphological changes, light microscope [8]: reduced the MCF-7 cells number and severely distorted the MCF-7 cells shape | morphology, acridine orange and propidium iodide fluorescent microscopy [8]: presented the morphological characteristics of apoptotic cells | IC50 ([3]; 24 h): 23.5 ± 2.41 µM | IC50 ([3]; 48 h): 12.5 ± 1.87 µM | IC50 ([3]; 72 h): 11 ± 1.33 µM | SI MCF10A/MCF7 [3, 13]: 7.66 | SI MCF10A/MCF7 [3, 14]: 8.64 | SI MCF10A/MCF7 [3, 15]: 8.96 | selectivity index (SI) MCF-7 against MCF-10A ([3]; summary over 24, 48 and 72 h): > 7 | Early apoptotic cells ([9]; BHMC at IC50, 24 h): 10.34% | Late apoptotic/necrotic cells ([9]; BHMC at IC50, 24 h): 8.81% | Early apoptotic cells ([9]; BHMC at IC50, 72 h): 43.44% | Late apoptotic/necrotic cells ([9]; BHMC at IC50, 72 h): 38.22%
